Results on 14 molecules are retold here after patent publication US8148373B2, “Compounds” (AstraZeneca AB, priority 2008, dated 2012).

The structures appear in SMILES notation.

For test [1], the target named is T1, Adrenergic β2 (H292 cells) (Homo sapiens, UniProt P07550).
T1 construct: endogenous in cells; host or cells: H292 cells
As to the kind of experiment: Adrenergic β2 Mediated cAMP Production, single concentration 1 μM. The format is cell-based. The settings on record: NCI-H292, 1 μM compound, percentage of the maximum response generated by 1E-07M formoterol, read-out: β2 (% effect at 1 μM). On the procedure:
The following experimental procedure was used to measure the beta-2% effect at 1 μM for the compounds of Examples 116-263. Adrenergic β2 Mediated cAMP Production Cell Preparation
H292 cells are grown in 225 cm2 flasks incubator at 37° C., 5% CO2 in RPMI medium containing 10% (v/v) FBS (foetal bovine serum) and 2 mM L-glutamine.
Compounds were prepared by an initial first dilution into DMSO to give 1 mM stock concentration. This was followed by a 1 in 10 dilution of the stock concentration (10 μl stock compound+90 μl DMSO) to give 0.1 mM compound.
A compound addition plate was prepared by making a further 1 in 25 dilution in assay buffer (HBSS solution containing 10 mM HEPES pH7.4 and 5 mM glucose) containing 4% dimethylsulfoxide. The final compound concentration in assay is 1 μM.
Adherent H292 cells are removed from tissue culture flasks by treatment with Accutase™ cell detachment solution for 15 minutes. Flasks are incubated for 15 minutes in a humidified incubator at 37° C., 5% CO2. Detached cells are re-suspended in RPMI media (containing 10% (v/v) FBS and 2 mM L-glutamine) at 0.1×10^6 cells per mL. 10000 cells in 100 μL are added to each well of a tissue-culture-treated 96-well plate and the cells incubated overnight in a humidified incubator at 37° C., 5% CO2. The culture media is removed and cells are washed twice with 100 μL assay buffer and replaced with 50 μL assay buffer (HBSS solution containing 10 mM HEPES pH7.4 and 5 mM glucose). Cells are rested at room temperature for 20 minutes after which time 25 μL of rolipram (1.2 mM made up in assay buffer) is added. Cells are incubated with rolipram for 10 minutes after which time 25 μl test compounds are added and the cells are incubated for 60 minutes at room temperature. The final rolipram concentration in the assay is 300 μM and final vehicle concentration is 1% (v/v) dimethylsulphoxide. The reaction is stopped by removing supernatants, washing once with 100 μL assay buffer and replacing with 50 μL lysis buffer. The cell monolayer is frozen at −80° C. for 30 minutes (or overnight).
AlphaScreen™ cAMP Detection
The concentration of cAMP (cyclic adenosine monophosphate) in the cell lysate is determined using AlphaScreen™ methodology. The frozen cell plate is thawed for 20 minutes on a plate shaker then 10 μL of the cell lysate is transferred to a 96-well white plate. 40 μL of mixed AlphaScreen™ detection beads (containing equal volumes of donor beads (pre-incubated with biotinylated cAMP in the dark for 30 minutes) and acceptor beads is added to each well and the plate incubated at room temperature for 3 hours in the dark. The AlphaScreen™ signal is measured using an EnVision spectrophotometer (Perkin-Elmer Inc.) with the recommended manufacturer's settings. Concentration of cAMP produced per well were calculated with reference to the cAMP standard curve determined in the same experiment and expressed as a percentage of the maximum response generated by 1E-07M formoterol.

Test [2] addresses T2, human muscarinic acetylcholine M3 receptor (M3-ACh) (Homo sapiens, UniProt P20309).
T2 construct: expressed in transfected cells; host or cells: CHO-K1 (Chinese Hamster Ovary) cell membranes
Nature of the test: Muscarinic 3 Receptor Binding Assay, % inhibition specific binding at 1 μM. Particulars: 1 μM compound, % inhibition specific [3H]-NMS binding. Here is the method:
The following experimental procedure was used to determine the M3% inhibition at 1 μM of the compounds of Examples 116-263.
Muscarinic 3 Receptor Binding Assay
The activity (% inhibition specific binding) of compounds -on the M3 receptor is determined by competition binding of [^3H]N-methyl scopolamine (NMS) to CHO-K1 (Chinese Hamster Ovary) cell membranes expressing the human muscarinic acetylcholine M3 receptor (M3-ACh) in a scintillation proximity assay (SPA) format.
SPA beads are precoated with membranes and then incubated at 2 mg of beads per well with 1 μM compound of the invention, [^3H]NMS at 0.1 nM, quarter Kd (experimentally determined dissociation constant) and assay buffer (20 mM HEPES pH 7.4 containing 5 mM MgCl2). The assay is conducted in a final volume of 200 μL, in the presence of 1% (v/v) dimethyl sulphoxide (DMSO). Total binding of [^3H]NMS is determined in the absence of competing compound and non-specific binding of [^3H]NMS is determined in the presence of 1 μM atropine. The plates are incubated for 16 hours at room temperature and then read on Wallac Microbeta™ using a normalised ^3H protocol. The compound activity at 1 defined as % inhibition specific [^3H]-NMS binding, is determined.

One may read the inhibition as the share of the control response that was lost under treatment.

T2 sequence (P20309 whole entry): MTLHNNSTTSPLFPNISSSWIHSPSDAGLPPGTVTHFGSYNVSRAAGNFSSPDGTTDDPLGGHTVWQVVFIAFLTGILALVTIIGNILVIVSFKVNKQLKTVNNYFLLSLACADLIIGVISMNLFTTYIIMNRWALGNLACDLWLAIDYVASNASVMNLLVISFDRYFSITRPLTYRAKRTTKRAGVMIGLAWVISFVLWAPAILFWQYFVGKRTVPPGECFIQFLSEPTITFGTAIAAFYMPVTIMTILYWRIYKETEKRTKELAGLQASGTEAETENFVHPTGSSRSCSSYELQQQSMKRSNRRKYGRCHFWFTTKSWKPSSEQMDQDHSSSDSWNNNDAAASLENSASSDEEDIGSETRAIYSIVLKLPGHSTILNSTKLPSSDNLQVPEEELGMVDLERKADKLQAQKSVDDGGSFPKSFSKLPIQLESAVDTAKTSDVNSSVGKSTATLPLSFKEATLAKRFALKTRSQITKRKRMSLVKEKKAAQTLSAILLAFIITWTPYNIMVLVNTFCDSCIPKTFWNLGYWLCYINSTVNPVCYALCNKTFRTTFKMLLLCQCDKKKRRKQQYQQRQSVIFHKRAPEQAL
T1 sequence (P07550 whole entry): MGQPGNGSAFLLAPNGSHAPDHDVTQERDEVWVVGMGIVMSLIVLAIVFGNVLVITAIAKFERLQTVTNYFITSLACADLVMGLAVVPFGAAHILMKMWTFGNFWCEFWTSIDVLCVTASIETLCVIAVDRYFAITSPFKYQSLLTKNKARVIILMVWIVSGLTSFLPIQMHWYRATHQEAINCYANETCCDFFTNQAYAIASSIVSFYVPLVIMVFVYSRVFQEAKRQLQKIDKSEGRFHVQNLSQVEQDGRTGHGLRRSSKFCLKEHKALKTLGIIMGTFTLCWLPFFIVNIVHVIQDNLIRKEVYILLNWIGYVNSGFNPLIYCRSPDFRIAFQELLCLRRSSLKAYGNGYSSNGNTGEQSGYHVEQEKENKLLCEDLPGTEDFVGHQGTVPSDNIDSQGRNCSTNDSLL

In the case of `Cc1sccc1C(=O)N1CCOC2(CCN(Cc3cc(F)cc(CCNC[C@H](O)c4ccc(O)c5[nH]c(=O)sc45)c3)CC2)C1` [Example 147, (R)-7-(2-(3-fluoro-5-((4-(2-methylthiophene-3-carbonyl)-1-oxa 4,9-diazaspiro[5.5]undecan-9-yl)methyl)phenethylamino)-1-hydroxyethyl)-4-hydroxybenzo[d]thiazol-2(3H)-one], the activation at 1 µM in test [1] came to 102%. This molecule also returned an inhibition at 1 µM in test [2] of 66%.
As for `O=C(c1ccc(-c2cc[nH]n2)cc1)N1CCOC2(CCN(Cc3cc(F)cc(CCNC[C@H](O)c4ccc(O)c5[nH]c(=O)sc45)c3)CC2)C1` [Example 148, (R)-7-(2-(3-((4-(4-(1H-pyrazol-3-yl)benzoyl)-1-oxa-4,9-diazaspiro[5.5]undecan-9-yl)methyl)-5-fluorophenethylamino)-1-hydroxyethyl)-4-hydroxybenzo[d]thiazol-2(3H)-one], the activation at 1 µM in test [1] was 104%. In addition, in test [2], the inhibition at 1 µM was 4%.
For `Cc1cc(C(=O)N2CCOC3(CCN(Cc4cc(F)cc(CCNC[C@H](O)c5ccc(O)c6[nH]c(=O)sc56)c4)CC3)C2)c(C)s1` [Example 150, (R)-7-(2-(3-((4-(2,5-dimethylthiophene-3-carbonyl)-1-oxa-4,9-diazaspiro[5.5]undecan-9-yl)methyl)-5-fluorophenethylamino)-1-hydroxyethyl)-4-hydroxybenzo[d]thiazol-2(3H)-one], in that order: 100% and 91%.
On to `Cc1nonc1C(=O)N1CCOC2(CCN(Cc3cc(F)cc(CCNC[C@H](O)c4ccc(O)c5[nH]c(=O)sc45)c3)CC2)C1` [Example 151, (R)-7-(2-(3-fluoro-5-((4-(4-methyl-1,2,5-oxadiazole-3-carbonyl)-1-oxa-4,9-diazaspiro[5.5]undecan-9-yl)methyl)phenethylamino)-1-hydroxyethyl)-4-hydroxybenzo[d]thiazol-2(3H)-one], for which the activation at 1 µM in test [1] stood at 98%. In test [2], this molecule showed an inhibition at 1 µM of 71%.
On to `Cc1nc2ccccn2c1C(=O)N1CCOC2(CCN(Cc3cc(F)cc(CCNC[C@H](O)c4ccc(O)c5[nH]c(=O)sc45)c3)CC2)C1` [Example 152, (R)-7-(2-(3-fluoro-5-((4-(2-methylimidazo[1,2-a]pyridine-3-carbonyl)-1-oxa-4,9-diazaspiro[5.5]undecan-9-yl)methyl)phenethylamino)-1-hydroxyethyl)-4-hydroxybenzo[d]thiazol-2(3H)-one], for which, in test [1], the activation at 1 µM was 110%. Also, in test [2], at 1 µM the inhibition was 13%.
For `Cc1ccn(CC(=O)N2CCOC3(CCN(Cc4cc(F)cc(CCNC[C@H](O)c5ccc(O)c6[nH]c(=O)sc56)c4)CC3)C2)n1` [Example 153, (R)-7-(2-(3-fluoro-5-((4-(2-(3-methyl-1H-pyrazol-1-yl)acetyl)-1-oxa-4,9-diazaspiro[5.5]undecan-9-yl)methyl)phenethylamino)-1-hydroxyethyl)-4-hydroxybenzo[d]thiazol-2(3H)-one], in test [1], the activation at 1 µM stood at 98%. Besides, at 1 µM the inhibition in test [2] was 67%.
For `CCOc1ccc(O)c(C(=O)N2CCOC3(CCN(Cc4cc(F)cc(CCNC[C@H](O)c5ccc(O)c6[nH]c(=O)sc56)c4)CC3)C2)c1` [Example 154, (R)-7-(2-(3-((4-(5-ethoxy-2-hydroxybenzoyl)-1-oxa-4,9-diazaspiro[5.5]undecan-9-yl)methyl)-5-fluorophenethylamino)-1-hydroxyethyl)-4-hydroxybenzo[d]thiazol-2(3H)-one], the activation at 1 µM in test [1] was 102%. Further, the inhibition at 1 µM in test [2] amounted to 28%.
For the molecule `O=C(c1cc(-c2ccccc2)n[nH]1)N1CCOC2(CCN(Cc3cc(F)cc(CCNC[C@H](O)c4ccc(O)c5[nH]c(=O)sc45)c3)CC2)C1` [Example 155, (R)-7-(2-(3-fluoro-5-((4-(3-phenyl-1H-pyrazole-5-carbonyl)-1-oxa-4,9-diazaspiro[5.5]undecan-9-yl)methyl)phenethylamino)-1-hydroxyethyl)-4-hydroxybenzo[d]thiazol-2(3H)-one], the activation at 1 µM in test [1] turned out to be 101%. Besides, in test [2], testing at 1 µM gave an inhibition of 4%.
As to `O=C(c1ccc(-n2ccnc2)cc1)N1CCOC2(CCN(Cc3cc(F)cc(CCNC[C@H](O)c4ccc(O)c5[nH]c(=O)sc45)c3)CC2)C1` [Example 156, (R)-7-(2-(3-((4-(4-(1H-imidazol-1-yl)benzoyl)-1-oxa-4,9-diazaspiro[5.5]undecan-9-yl)methyl)-5-fluorophenethylamino)-1-hydroxyethyl)-4-hydroxybenzo[d]thiazol-2(3H)-one], the activation at 1 µM in test [1] is 106%. 1 µM produced 3% inhibition in test [2].
For the molecule `Cc1ccc2[nH]c(C(=O)N3CCOC4(CCN(Cc5cc(F)cc(CCNC[C@H](O)c6ccc(O)c7[nH]c(=O)sc67)c5)CC4)C3)cc2c1` [Example 157, (R)-7-(2-(3-fluoro-5-((4-(5-methyl-1H-indole-2-carbonyl)-1-oxa-4,9-diazaspiro[5.5]undecan-9-yl)methyl)phenethylamino)-1-hydroxyethyl)-4-hydroxybenzo[d]thiazol-2(3H)-one], the activation at 1 µM in test [1] turned out to be 102%. Moreover, the inhibition at 1 µM in test [2] came to 13%.
As for `O=C([C@@H]1CCCO1)N1CCOC2(CCN(Cc3cc(F)cc(CCNC[C@H](O)c4ccc(O)c5[nH]c(=O)sc45)c3)CC2)C1` [Example 158, 7-((R)-2-(3-fluoro-5-((4-((S)-tetrahydrofuran-2-carbonyl)-1-oxa-4,9-diazaspiro[5.5]undecan-9-yl)methyl)phenethylamino)-1-hydroxyethyl)-4-hydroxybenzo[d]thiazol-2(3H)-one], the activation at 1 µM in test [1] was 95%. Further, in test [2], the inhibition at 1 µM was found to be 72%.
As for `O=C(c1ccc(-c2cnco2)cc1)N1CCOC2(CCN(Cc3cc(F)cc(CCNC[C@H](O)c4ccc(O)c5[nH]c(=O)sc45)c3)CC2)C1` [Example 159, (R)-7-(2-(3-fluoro-5-((4-(4-(oxazol-5-yl)benzoyl)-1-oxa-4,9-diazaspiro[5.5]undecan-9-yl)methyl)phenethylamino)-1-hydroxyethyl)-4-hydroxybenzo[d]thiazol-2(3H)-one], the activation at 1 µM in test [1] is 90%. Also, at 1 µM the inhibition in test [2] was 3%.
For `O=C(c1ccnn1-c1ccccc1)N1CCOC2(CCN(Cc3cc(F)cc(CCNC[C@H](O)c4ccc(O)c5[nH]c(=O)sc45)c3)CC2)C1` [Example 160, (R)-7-(2-(3-fluoro-5-((4-(1-phenyl-1H-pyrazole-5-carbonyl)-1-oxa-4,9-diazaspiro[5.5]undecan-9-yl)methyl)phenethylamino)-1-hydroxyethyl)-4-hydroxybenzo[d]thiazol-2(3H)-one], in that order: 91% and 5%.
For `CC1=NNC(=O)C1CCC(=O)N1CCOC2(CCN(Cc3cc(F)cc(CCNC[C@H](O)c4ccc(O)c5[nH]c(=O)sc45)c3)CC2)C1` (stereo partly drawn) [Example 161, 7-((1R)-2-(3-fluoro-5-((4-(3-(3-methyl-5-oxo-4,5-dihydro-1H-pyrazol-4-yl)propanoyl)-1-oxa-4,9-diazaspiro[5.5]undecan-9-yl)methyl)phenethylamino)-1-hydroxyethyl)-4-hydroxybenzo[d]thiazol-2(3H)-one], in that order: 87% and 42%.
